From patent US20230081426A1, “COMPOUNDS AND METHODS FOR KRAS MODULATION AND INDICATIONS THEREFOR” (Plexxikon Inc., priority 2020, published 2023)

Experiments:
[1] = molecular target: T1, G12D-mutant human KRAS (amino acid residues 1-188) (Homo sapiens, UniProt P01116, G12D); experiment: KRAS Binding Disruption Assay (AlphaScreen; biotinylated KRpep-2d analogue or RAF1-RBD), G12D; conditions: KRAS G12D; geometric mean; read-out: KRAS GMean IC50 (uM) MUTATION: G12D
T1 construct: G12D or G12C-mutant human KRAS (amino acid residues 1-188) with FLAG tag; made in house; host or cells: E. coli
T1 sequence (P01116 1-188 isoform P01116-2 G12D): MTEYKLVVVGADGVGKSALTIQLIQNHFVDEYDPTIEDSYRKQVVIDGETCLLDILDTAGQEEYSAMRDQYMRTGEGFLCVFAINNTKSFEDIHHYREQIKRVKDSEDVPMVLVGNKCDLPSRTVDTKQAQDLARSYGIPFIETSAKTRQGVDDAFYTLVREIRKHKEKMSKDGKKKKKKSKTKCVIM
How it was run: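 AlphaScreen readout: signal falls as compound displaces biotinylated KRpep-2d analogue or RAF1-RBD from mutant KRAS. Both partners at 5-20 nM, 1 h binding at 25° C, then 10 μg/mL Anti-Flag acceptor and streptavidin donor beads for 1 h. IC50 by nonlinear regression of % inhibition.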

[2] = molecular target: T2, G12C-mutant human KRAS (amino acid residues 1-188) (Homo sapiens, UniProt P01116, G12C); experiment: KRAS Binding Disruption Assay (AlphaScreen; biotinylated KRpep-2d analogue or RAF1-RBD), G12C; conditions: geometric mean, read-out: KRAS GMean IC50 (uM) MUTATION: G12C
T2 construct: G12D or G12C-mutant human KRAS (amino acid residues 1-188) with FLAG tag; made in house; host or cells: E. coli
T2 sequence (P01116 1-188 isoform P01116-2 G12C): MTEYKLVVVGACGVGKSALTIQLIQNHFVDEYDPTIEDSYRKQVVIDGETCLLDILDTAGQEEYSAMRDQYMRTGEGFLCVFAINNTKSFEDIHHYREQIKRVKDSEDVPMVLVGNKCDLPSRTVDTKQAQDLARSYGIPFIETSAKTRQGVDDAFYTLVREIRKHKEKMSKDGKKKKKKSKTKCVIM
Experimental: Compound binding disrupts the interaction of KRpep-2d or RAF1-RBD with KRAS, leading to a decrease in Alpha signal.
All assay components were prepared in 20 mM HEPES (pH 7.5), 100 mM NaCl, 5 mM MgCl2, 0.01% Tween-20, and 0.01% BSA. Biotinylated analogues of KRpep-2d were custom synthesized. The binding disruption assays were performed using 5-20 nM of mutant KRAS and 5-20 nM of either biotinylated KRpep-2d analogue or RAF1-RBD. 19 μL of KRAS protein and 4 μL of biotinylated KRpep-2d or RAF1-RBD were added to the wells of a 384-well plate containing 1 μL of various concentrations of test compound or DMSO vehicle. 16 wells containing KRAS, biotinylated KRpep-2d or RAF1-RBD, and 5% DMSO served as high controls. 16 wells containing KRAS only and 5% DMSO served as low controls. Binding reactions were incubated for 1 hour at 25° C., then Anti-Flag Acceptor and Streptavidin Donor Alpha beads were added at a final concentration of 10 μg/mL for an additional hour at room temperature. Alpha signal was read out on a Perkin Elmer Envision HTS instrument. The percentage inhibition at individual compound concentrations relative to high and low controls was calculated. The data were analyzed by using nonlinear regression to generate IC50 values.

Row | SMILES | IC50 [1] [µM] | IC50 [2] [µM]
1 | CN1CCCC12CN(c1nc(N3C[C@H]4CC[C@@H](C3)N4)c3ccc(-c4cc(O)cc5ccccc45)c(F)c3n1)C2 [P-0641, 4-(4-((1R,5S)-3,8-diazabicyclo[3.2.1]octan-3-yl)-8-fluoro-2-(5-methyl-2,5-diazaspiro[3.4]octan-2-yl)quinazolin-7-yl)naphthalen-2-ol] | 0.0001 to 10 | 10 to 100
2 | NC(=O)CCN1[C@@H]2CC[C@H]1CN(c1nc(OCC34CCCN3CCC4)nc3c(F)c(-c4cc(O)cc5ccccc45)ccc13)C2 [P-0642, 3-((1R,5S)-3-(8-fluoro-7-(3-hydroxynaphthalen-1-yl)-2-((tetrahydro-1H-pyrrolizin-7a(5H)-yl)methoxy)quinazolin-4-yl)-3,8-diazabicyclo[3.2.1]octan-8-yl)propanamide] | 0.0001 to 10 | 0.0001 to 10
3 | CN1CC2(C1)CN(c1nc(N3C[C@H]4CC[C@@H](C3)N4)c3ccc(-c4cc(O)cc5ccccc45)c(F)c3n1)C2 [P-0643, 4-(4-((1R,5S)-3,8-diazabicyclo[3.2.1]octan-3-yl)-8-fluoro-2-(6-methyl-2,6-diazaspiro[3.3]heptan-2-yl)quinazolin-7-yl)naphthalen-2-ol] | 0.0001 to 10 | 10 to 100
4 | Fc1cc2c(N3C[C@H]4CC[C@@H](C3)N4)nc(OCC34CCCN3CCC4)nc2c(F)c1-c1c(Cl)cnc2[nH]ccc12 [P-0645, 4-((1R,5S)-3,8-diazabicyclo[3.2.1]octan-3-yl)-7-(5-chloro-1H-pyrrolo[2,3-b]pyridin-4-yl)-6,8-difluoro-2-((tetrahydro-1H-pyrrolizin-7a(5H)-yl)methoxy)quinazoline] | 0.0001 to 10 | 10 to 100
5 | Cc1ccc2[nH]cc(-c3ccc4c(N5C[C@H]6CC[C@@H](C5)N6)nc(OCC56CCCN5CCC6)nc4c3F)c2c1F [P-0646, 4-((1R,5S)-3,8-diazabicyclo[3.2.1]octan-3-yl)-8-fluoro-7-(4-fluoro-5-methyl-1H-indol-3-yl)-2-((tetrahydro-1H-pyrrolizin-7a(5H)-yl)methoxy)quinazoline] | 0.0001 to 10 | 0.0001 to 10
6 | CC(C)(COc1nc(N2C[C@H]3CC[C@@H](C2)N3)c2ccc(-c3cc(O)cc4ccccc34)c(F)c2n1)C(=O)O [P-0647, 3-((4-((1R,5S)-3,8-diazabicyclo[3.2.1]octan-3-yl)-8-fluoro-7-(3-hydroxynaphthalen-1-yl)quinazolin-2-yl)oxy)-2,2-dimethylpropanoic acid] | 0.0001 to 10 | 10 to 100
7 | COC(=O)C(C)(C)COc1nc(N2C[C@H]3CC[C@@H](C2)N3)c2ccc(-c3cc(O)cc4ccccc34)c(F)c2n1 [P-0648, methyl 3-((4-((1R,5S)-3,8-diazabicyclo[3.2.1]octan-3-yl)-8-fluoro-7-(3-hydroxynaphthalen-1-yl)quinazolin-2-yl)oxy)-2,2-dimethylpropanoate] | 0.0001 to 10 | 10 to 100
8 | Oc1cc(-c2ccc3c(N4C[C@H]5CC[C@@H](C4)N5)nc(OCCN4CCC(F)(F)C4)nc3c2F)c2ccccc2c1 [P-0649, 4-(4-((1R,5S)-3,8-diazabicyclo[3.2.1]octan-3-yl)-2-(2-(3,3-difluoropyrrolidin-1-yl)ethoxy)-8-fluoroquinazolin-7-yl)naphthalen-2-ol] | 0.0001 to 10 | 0.0001 to 10
9 | Oc1cc(-c2ccc3c(N4C[C@H]5CC[C@@H](C4)N5)nc(OCC4CC(O)C4)nc3c2F)c2ccccc2c1 (stereo partly drawn) [P-0650, 4-(4-((1R,5S)-3,8-diazabicyclo[3.2.1]octan-3-yl)-8-fluoro-2-((3-hydroxycyclobutyl)methoxy)quinazolin-7-yl)naphthalen-2-ol] | 0.0001 to 10 | 0.0001 to 10
10 | OCC1(COc2nc(N3C[C@H]4CC[C@@H](C3)N4)c3ccc(-c4cc(O)cc5ccccc45)c(F)c3n2)CCC1 [P-0651, 4-(4-((1R,5S)-3,8-diazabicyclo[3.2.1]octan-3-yl)-8-fluoro-2-((1-(hydroxymethyl)cyclobutyl)methoxy)quinazolin-7-yl)naphthalen-2-ol] | 0.0001 to 10 | 0.0001 to 10
11 | OCCCOc1nc(N2C[C@H]3CC[C@@H](C2)N3)c2ccc(-c3cc(O)cc4ccccc34)c(F)c2n1 [P-0652, 4-(4-((1R,5S)-3,8-diazabicyclo[3.2.1]octan-3-yl)-8-fluoro-2-(3-hydroxypropoxy)quinazolin-7-yl)naphthalen-2-ol] | 0.0001 to 10 | 10 to 100
12 | Fc1c(-c2c[nH]c3cccc(CC4CC4)c23)ccc2c(N3C[C@H]4CC[C@@H](C3)N4)nc(OCC34CCCN3CCC4)nc12 [P-0653, 4-((1R,5S)-3,8-diazabicyclo[3.2.1]octan-3-yl)-7-(4-(cyclopropylmethyl)-1H-indol-3-yl)-8-fluoro-2-((tetrahydro-1H-pyrrolizin-7a(5H)-yl)methoxy)quinazoline] | 0.0001 to 10 | 0.0001 to 10
13 | CN1CCC[C@H]1COc1nc(N2C[C@H]3CC[C@@H](C2)N3)c2ccc(-c3c[nH]c4cccc(Cl)c34)c(F)c2n1 [P-0654, 4-((1R,5S)-3,8-diazabicyclo[3.2.1]octan-3-yl)-7-(4-chloro-1H-indol-3-yl)-8-fluoro-2-(((S)-1-methylpyrrolidin-2-yl)methoxy)quinazoline] | 0.0001 to 10 | 10 to 100
14 | O=C(CCO)Nc1nc(N2C[C@H]3CC[C@@H](C2)N3)c2ccc(-c3cc(O)cc4ccccc34)c(F)c2n1 [P-0655, N-(4-((1R,5S)-3,8-diazabicyclo[3.2.1]octan-3-yl)-8-fluoro-7-(3-hydroxynaphthalen-1-yl)quinazolin-2-yl)-3-hydroxypropanamide] | 0.0001 to 10 | 100 to 1000
15 | CC(C)(O)CCOc1nc(N2C[C@H]3CC[C@@H](C2)N3)c2ccc(-c3cc(O)cc4ccccc34)c(F)c2n1 [P-0656, 4-(4-((1R,5S)-3,8-diazabicyclo[3.2.1]octan-3-yl)-8-fluoro-2-(3-hydroxy-3-methylbutoxy)quinazolin-7-yl)naphthalen-2-ol] | 0.0001 to 10 | 10 to 100
16 | COC1CN(c2nc(N3C[C@H]4CC[C@@H](C3)N4)c3ccc(-c4cc(O)cc5ccccc45)c(F)c3n2)C1 [P-0658, 4-(4-((1R,5S)-3,8-diazabicyclo[3.2.1]octan-3-yl)-8-fluoro-2-(3-methoxyazetidin-1-yl)quinazolin-7-yl)naphthalen-2-ol] | 0.0001 to 10 | 100 to 1000
17 | CN1C[C@H](O)C[C@H]1COc1nc(N2C[C@H]3CC[C@@H](C2)N3)c2ccc(-c3cc(O)cc4ccccc34)c(F)c2n1 [P-0659, (3R,5S)-5-(((4-((1R,5S)-3,8-diazabicyclo[3.2.1]octan-3-yl)-8-fluoro-7-(3-hydroxynaphthalen-1-yl)quinazolin-2-yl)oxy)methyl)-1-methylpyrrolidin-3-ol] | 0.0001 to 10 | 0.0001 to 10
18 | NC(=O)N1[C@@H]2CC[C@H]1CN(c1nc(OCC34CCCN3CCC4)nc3c(F)c(-c4cc(O)cc5ccccc45)ccc13)C2 [P-0660, (1R,5S)-3-(8-fluoro-7-(3-hydroxynaphthalen-1-yl)-2-((tetrahydro-1H-pyrrolizin-7a(5H)-yl)methoxy)quinazolin-4-yl)-3,8-diazabicyclo[3.2.1]octane-8-carboxamide] | 0.0001 to 10 | 0.0001 to 10
19 | NS(=O)(=O)N1[C@@H]2CC[C@H]1CN(c1nc(OCC34CCCN3CCC4)nc3c(F)c(-c4cc(O)cc5ccccc45)ccc13)C2 [P-0662, (1R,5S)-3-(8-fluoro-7-(3-hydroxynaphthalen-1-yl)-2-((tetrahydro-1H-pyrrolizin-7a(5H)-yl)methoxy)quinazolin-4-yl)-3,8-diazabicyclo[3.2.1]octane-8-sulfonamide] | 0.0001 to 10 | 0.0001 to 10
